Measurements as given in patent US10590130B2, “Chemical compounds” (AstraZeneca AB, priority 2016, dated 2020).

Test: Human hepatocyte assay (metabolic stability)
Format: in vitro ADME
Details: human hepatocytes, in vitro intrinsic clearance
Procedure: The metabolic stability of compounds in human hepatocytes was assessed using the following protocol: • 1. Prepare 10 mM stock solutions of compound and control compounds in appropriate solvent (DMSO). Place incubation medium (L-15 Medium) in a 37° C. water bath, and allow warming for at least 15 minutes prior to use. • 2. Add 80 μL of acetonitrile to each well of the 96-well deep well plate (quenching plate). • 3. In a new 96-well plate, dilute the 10 mM test compounds and the control compounds to 100 μM by combining 198 μL of acetonitrile and 2 μL of 10 mM stock. • 4. Remove a vial of cryopreserved (less than −150° C.) human hepatocytes (LiverPool™ 10 Donor Human hepatocytes obtained from Celsis IVT. Chicago, Ill. (Product No. S01205)) from storage, ensuring that vials remain at cryogenic temperatures until thawing process ensues. As quickly as possible, thaw the cells by placing the vial in a 37° C. water bath and gently shaking the vials. Vials should remain in water bath until all ice crystals have dissolved and are no longer visible. After thawing is complete, spray vial with 70% ethanol, transfer the vial to a bio-safety cabinet. • 5. Open the vial and pour the contents into the 50 mL conical tube containing thawing medium. Place the 50 mL conical tube into a centrifuge and spin at 100 g for 10 minutes. […] Using Cellometer® Vision, count cells and determine the viable cell density. Cells with poor viability (<80% viability) are not acceptable for use. […] Transfer 247.5 μL of hepatocytes into each well of a 96-well cell culture plate. Place the plate on Eppendorf Thermomixer Comfort plate shaker to allow the hepatocytes to warm for 10 minutes. • 8. Add 2.5 μL of 100 μM test compound or control compounds into an incubation well containing cells, mix to achieve a homogenous suspension at 0.5 min, which when achieved, will define the 0.5 min time point. At the 0.5 min time, transfer 20 μL of incubated mixture to wells in a “Quenching plate” followed by vortexing. • 9. Incubate the plate at 37° C. at 900 rpm on an Eppendorf Thermomixer Comfort plate shaker. […] Centrifuge the quenching plates for 20 minutes at 4,000 rpm. 4 different compounds are pooled into one cassette and used for LC/MS/MS analysis.
All calculations were carried out using Microsoft Excel. Peak areas were determined from extracted ion chromatograms. In vitro intrinsic clearance (in vitro Clint, in […]) of parent compound was determined by regression analysis of the Ln percent parent disappearance vs. time curve.
V=incubation volume (0.25 mL);
N=number of hepatocytes per well (0.25×10^6 cells).

Compound | Clint
C[C@@H]1Cc2c(ccc3[nH]ncc23)[C@@H](c2ccc(NC3CN(CCCF)C3)cn2)N1CC1(F)CC1 [Example 3, 6-((6S,8R)-7-((l-fluorocyclopropyl)methyl)-8-methyl-6,7,8,9-tetrahydro-3H-pyrazolo[4,3-f]isoquinolin-6-yl)-N-(1-(3-fluoropropyl)azetidin-3-yl)pyridin-3-amine] | 5 μL/min/10^6 cells
C[C@@H]1Cc2c(ccc3[nH]ncc23)[C@@H](c2c(F)cc(NC3CN(CCCF)C3)cc2F)N1CC1(F)CC1 [Example 11, N-(3,5-difluoro-4-((6S,8R)-7-((1-fluorocyclopropyl)methyl)-8-methyl-6,7,8,9-tetrahydro-3H-pyrazolo[4,3-f]isoquinolin-6-yl)phenyl)-1-(3-fluoropropyl)azetidin-3-amine] | 7 μL/min/10^6 cells
C[C@@H]1Cc2c(ccc3[nH]ncc23)[C@@H](c2ncc(NC3CN(CCCF)C3)cc2F)N1CC1(F)CC1 [Example 18, 5-fluoro-6-((6S,8R)-7-((1-fluorocyclopropyl)methyl)-8-methyl-6,7,8,9-tetrahydro-3H-pyrazolo[4,3-f]isoquinolin-6-yl)-N-(1-(3-fluoropropyl)azetidin-3-yl)pyridin-3-amine] | 3 μL/min/10^6 cells
COc1cc(NC2CN(CCCF)C2)ccc1[C@@H]1c2ccc3[nH]ncc3c2C[C@@H](C)N1CC(C)(F)F [Example 19, N-(4-((6S,8R)-7-(2,2-difluoropropyl)-8-methyl-6,7,8,9-tetrahydro-3H-pyrazolo[4,3-f]isoquinolin-6-yl)-3-methoxyphenyl)-1-(3-fluoropropyl)azetidin-3-amine] | 5 μL/min/10^6 cells
COc1cc(NC2CN(CCCF)C2)ccc1[C@@H]1c2ccc3[nH]ncc3c2C[C@@H](C)N1CC(F)F [Example 21, N-(4-((6S,8R)-7-(2,2-difluoroethyl)-8-methyl-6,7,8,9-tetrahydro-3H-pyrazolo[4,3-f]isoquinolin-6-yl)-3-methoxyphenyl)-1-(3-fluoropropyl)azetidin-3-amine] | 6 μL/min/10^6 cells
C[C@@H]1Cc2c(ccc3[nH]ncc23)[C@@H](c2ccc(NC3CN(CCCF)C3)cn2)N1CC(F)F [Example 25, 6-((6S,8R)-7-(2,2-difluoroethyl)-8-methyl-6,7,8,9-tetrahydro-3H-pyrazolo[4,3-f]isoquinolin-6-yl)-N-(1-(3-fluoropropyl)azetidin-3-yl)pyridin-3-amine] | 5 μL/min/10^6 cells
COc1cc(NC2CN(CCCF)C2)ccc1[C@@H]1c2ccc3[nH]ncc3c2C[C@@H](C)N1CC(F)(F)F [Example 28, 1-(3-fluoropropyl)-N-(3-methoxy-4-((6S,8R)-8-methyl-7-(2,2,2-trifluoroethyl)-6,7,8,9-tetrahydro-3H-pyrazolo[4,3-f]isoquinolin-6-yl)phenyl)azetidin-3-amine] | 5 μL/min/10^6 cells

Second part, the compound after the results:

Clint | Compound
11 μL/min/10^6 cells | COCC(F)(F)CN1[C@H](c2ccc(NC3CN(CCCF)C3)cc2OC)c2ccc3[nH]ncc3c2C[C@H]1C [Example 1, N-(4-((6S,8R)-7-(2,2-difluoro-3-methoxypropyl)-8-methyl-6,7,8,9-tetrahydro-3H-pyrazolo[4,3-f]isoquinolin-6-yl)-3-methoxyphenyl)-1-(3-fluoropropyl)azetidin-3-amine]
6 μL/min/10^6 cells | COCC(F)(F)CN1[C@H](c2ccc(NC3CN(CCCF)C3)cn2)c2ccc3[nH]ncc3c2C[C@H]1C [Example 2, 6-((6S,8R)-7-(2,2-difluoro-3-methoxypropyl)-8-methyl-6,7,8,9-tetrahydro-3H-pyrazolo[4,3-f]isoquinolin-6-yl)-N-(1-(3-fluoropropyl)azetidin-3-yl)pyridin-3-amine]
2 μL/min/10^6 cells | COc1cc(NC2CN(CCCF)C2)ccc1[C@@H]1c2ccc3[nH]ncc3c2C[C@@H](C)N1CC1(F)CC1 [Example 6, N-(4-((6S,8R)-7-((l-fluorocyclopropyl)methyl)-8-methyl-6,7,8,9-tetrahydro-3H-pyrazolo[4,3-f]isoquinolin-6-yl)-3-methoxyphenyl)-1-(3-fluoropropyl)azetidin-3-amine]
4 μL/min/10^6 cells | C[C@@H]1Cc2c(ccc3[nH]ncc23)[C@@H](c2ccc(NC3CN(CCCF)C3)cc2)N1CC(F)F [Example 48, N-(4-((6R,8R)-7-(2,2-difluoroethyl)-8-methyl-6,7,8,9-tetrahydro-3H-pyrazolo[4,3-f]isoquinolin-6-yl)phenyl)-1-(3-fluoropropyl)azetidin-3-amine]

Test: log D (shake flask, octanol/aqueous buffer)
Format: physicochemical
Details: 1-octanol/aqueous buffer
From the text: Physical Properties log D
The lipophilicity of a drug is an important physical property which may influence many biological and metabolic properties of a compound, for example the absorption, distribution, metabolism, excretion and toxicity profiles of a compound. The distribution coefficient between 1-octanol and aqueous buffer, Log DO/W, at pH 7.4, is the most commonly used measurement of the lipophilicity of a compound. The current method for measurement of Log DO/W is based on the traditional shake flask technique, but with the modification of measuring compounds in mixtures of ten at a time using UPLC with quantitative mass spectrometry (MS) as a method to measure the relative octanol and aqueous concentrations. […] An additional QC sample Caffeine, with low Log D, are used and randomly placed in all runs. The method has been thoroughly validated against the previous shake flask methodologies.

LogD pH 7.4 | Compound
4 | COC[C@](C)(F)CN1[C@H](c2ccc(OC3CN(CCCF)C3)cc2OC)c2ccc3[nH]ncc3c2C[C@H]1C (single isomer, unassigned) [Example 13]
